# Source: patent US9637462B2, “Process for the preparation of N-iodoamides” (TECHNION RESEARCH & DEVELOPMENT FOUNDATION LIMITED, priority 2013, dated 2017)
# Key:
# [1] = Distribution coefficient (K) of amides between water-immiscible organic solvent and water (recovery of amides from aqueous solution); format: physicochemical; conditions: 25° C., stirred 0.5 h
# Description: A mixture of amide (weight of amide (W): 0.2-0.5 g), water (20-100 mL) and water immiscible organic solvent (the same volume as water) was stirred at 25° C. for 0.5 h. The organic layer was thoroughly separated, dried over Na2SO4, filtered and concentrated in vacuo to recover the amide. Distribution coefficient K was calculated according to the formula K=Wo/W−Wo, where Wo is weight of the recovered amide in g. Distribution coefficients of 3,5,5-trimethylhydantoin (3,5,5-TMH), 4,4-dimethyloxazolidin-2-one (DMO), 5,5-dimethylhydantoin (DMH) and succinimide in hexane, benzene, CCl4 and DCM are shown in Table 3.1.
# [2] = shake-flask, equal volumes, gravimetric recovery from organic layer; conditions: 25 °C
# [3] = PhH (benzene) / water (equal volumes)
Distribution coefficient (K) ([1]; CCl4 / water (equal volumes)),Distribution coefficient (K) ([1]; DCM / water (equal volumes)),"Distribution coefficient (K) [1, 3]",Distribution coefficient (K) ([1]; hexane / water (equal volumes)),melting point,partition coefficient dichloromethane / water [2],Compound
0.1≦,0.1≦,0.1≦,0.1≦,,,"O=C1CCC(=O)N1 [succinimide, reference compound]"
,,,,148 to 149 °C (dec.),,CC1(C)COC(=O)N1I
0.1≦,0.5,0.1≦,0.1≦,,0.5 mass ratio (equal phase volumes),"CC1(C)COC(=O)N1 [DMO, 4,4-dimethyloxazolidin-2-one]"
0.1≦,0.1≦,0.1≦,0.1≦,,,"CC1(C)NC(=O)NC1=O [DMH, 5,5-dimethylhydantoin, reference compound]"
,,,,198 to 199 °C (dec.),,"CN1C(=O)N(I)C(C)(C)C1=O [1-ITMH, 1-iodo-3,5,5-trimethylhydantoin]"
,,,,213 to 214 °C (dec.),,"CN1C(=O)N(I)C(=O)C1(C)C [3-ITMH, 3-iodo-1,5,5-trimethylhydantoin]"
0.1≦,1.6,0.1≦,0.1≦,,1.6 mass ratio (equal phase volumes),"CN1C(=O)NC(C)(C)C1=O [3,5,5-TMH, 3,5,5-trimethylhydantoin]"
